Experimental data reported in patent US20240075160A1, “COMBINATION THERAPIES FOR TREATMENT OF CANCER” (MedImmune, LLC, priority 2022, published 2024).

How the values were obtained:
[1] = tested on: PC9-MART1-GFP cells; assay: T cell mediated cytolysis in co-culture of MART-1 reactive CD8+ T cells and tumor cells (Incucyte, loss of GFP); type: cell-based; settings: single agent; bispecific 2 nM, ADC 0.05 μg/ml; E:T 4:1 or 5:1; five days after T cell addition
Method: A co-culture assay system was developed which utilized melanoma antigen Melan A (MART-1) reactive T cells and PC9 lung adenocarcinoma cells engineered to express both the MART-1 antigen and Green Fluorescent Protein (GFP). Tumor cell lysis was evaluated utilizing the Sartorius Incucyte Live Cell Analysis System whereby loss of GFP signal intensity was used as a surrogate marker for cell death. Briefly, PC9-MART1-GFP cells were harvested from cell culture flasks using trypsin, washed once with complete RPMI media as defined in Example 1, resuspended and added to each well of 96 well clear bottom, opaque walled optical plates for 24 hours at 37° C. in 5% CO2 as per the manufacturer's instructions. The PD-1-TIGIT (AZD2936), PD-1-TIM3 (AZD7789) or PD-1-CTLA4 (MEDI5752) bispecific antibodies were used at 2 nM concentration. The hRS7(TROP2)-TOP1i ADC was used at 0.05 μg/ml. Treatments were added alone or in combination to wells immediately before rested, antigen-specific CD8+ T cells were added at effector to target (E:T) ratios of 4:1 or 5:1 effector T cells to target tumor cells depending on the donor. Tumor cell death and percent cytolysis were measured five days after T cell addition by image analysis of GFP intensity per well. Data are from experiments with 3 unique donors. Statistical significance for the indicated comparisons is denoted as * p<0.05, ** p<0.01, p<0.001.

[2] = tested on: human IFN-7; assay: IFN-γ release in supernatants of co-culture of tumor cells and tumor reactive CD8+ T cells (Mesoscale ELISA); type: cell-based; settings: MART-1 reactive T cell-PC9 co-culture
Method: Antigen specific CD8+ T-cells secrete IFN-γ upon tumor antigen recognition. To evaluate the amount of IFN-7 detected within the supernatants of co-cultures containing PC9-MART1-GFP tumor cells and tumor reactive CD8+ T cells, separate parallel co-cultures were established in Nunc 96 well plates (Sigma Aldrich) alongside the Incucyte optical plates. For evaluation of IFN-7 release, supernatants were harvested from co-cultures in the Nunc 96 well plates 24, 72 and 144 hours later. IFN-7 was measured using Mesoscale Discovery multi-spot ELISA for human IFN-7 as per the manufacturer's instructions. […] For the MART-1 tumor antigen reactive T cell-PC9 lung adenocarcinoma co-culture, IFN-7 secretion by T cells was retained in the presence of the hRS7(TROP2)-TOP1i ADC alone, AZD2936 and MEDI5752 both alone and in combination with the ADC, FIG. 4C-4D. AZD7789 enhanced IFN-7, which was retained in combination with the hRS7(TROP2)-TOP1i ADC FIG. 4E.

[3] = agent alone, supernatants at 24, 72 and 144 hours
[4] = in combination with the hRS7(TROP2)-TOP1i ADC

Substance | T cell mediated cytolysis of PC9 tumor cells [1] | IFN-7 secretion by T cells [2, 3] | IFN-7 secretion by T cells [2, 4]
AZD2936: PD-1-TIGIT bispecific antibody | enhanced | retained | retained
AZD7789: anti-TIM-3/PD-1 bispecific binding protein comprising sequences of monoclonal antibody 013-1 (TIM-3) and LO115 (PD-1) | enhanced | enhanced | retained
MEDI5752: anti-PD-1/CTLA-4 bispecific antibody | enhanced | retained | retained
